pIC50: −log10 of the molar value. Calls of active or inactive are those of the source. The calls are words filed in the database; no cut-off is given here.
How the values were obtained:
BHK [1] = experiment: Inhibition of dog NCX1 expressed in BHK cells assessed as decrease in Na+ free solution induced calcium level at 10 uM by Fluo-2 AM dye based assay; format: cell-based; conditions: Canis lupus familiaris
BHK [2] = experiment: Inhibition of dog NCX1 expressed in BHK cells assessed as decrease in Na+ free solution induced calcium level at 0.01 to 10 uM by Fluo-4 AM dye based assay; format: cell-based; conditions: Canis lupus familiaris, dose 0.01-10 µM
Cortical neurone [3] = experiment: Neuroprotective activity against rat primary cortical neurons assessed as reduction in cell injury under hypoxic condition by MTT assay; format: functional, cell-based; conditions: dose 10.0 µM
Cortical neurone [4] = experiment: Neuroprotective activity against rat primary cortical neurons assessed as reduction in cell injury under RX and chemical hypoxia condition by MTT assay; format: functional, cell-based; conditions: dose 10.0 µM
BHK [5] = experiment: Activation of dog NCX1 expressed in BHK cells assessed as increase in Na+ free solution induced calcium level at 10 uM by fluo-2 AM dye based assay; format: cell-based; conditions: Canis lupus familiaris, filed as activator
[6] = Inhibition of dog NCX1 expressed in BHK cells assessed as decrease in Na+ free solution induced calcium level by patch-clamp electrophysiology assay; format: cell-based; conditions: Canis lupus familiaris
Cortical neurone [7] = experiment: Neuroprotective activity against rat primary cortical neurons assessed as reduction in cell injury at 10 uM preincubated with compound followed by compound washout and OGD and RX exposure by MTT assay; format: functional, cell-based
BHK [8] = experiment: Activation of dog NCX1 expressed in BHK cells assessed as increase in Na+ free solution induced calcium level at 0.1 to 10 uM by fluo-4 AM dye based assay; format: cell-based; conditions: Canis lupus familiaris, filed as activator, dose 0.1-10 µM
BHK [9] = experiment: Activation of dog NCX3 expressed in BHK cells assessed as forward NCX current at 10 uM at -120 mV holding potential by whole-cell patch clamp electrophysiology method; format: cell-based; conditions: Canis lupus familiaris, filed as activator
BHK [10] = experiment: Activation of dog NCX3 expressed in BHK cells assessed as increase in Na+ free solution induced calcium level at 10 uM by fluo-2 AM dye based assay; format: cell-based; conditions: Canis lupus familiaris, filed as activator
BHK [11] = experiment: Activation of dog NCX3 expressed in BHK cells assessed as reverse NCX current at 10 uM at + 60 mV holding potential by whole-cell patch clamp electrophysiology method; format: cell-based; conditions: Canis lupus familiaris, filed as activator
BHK [12] = experiment: Activation of dog NCX3 expressed in BHK cells assessed as increase in Na+ free solution induced calcium level at 0.1 to 10 uM by fluo-4 AM dye based assay; format: cell-based; conditions: Canis lupus familiaris, filed as activator, dose 0.1-10 µM
BHK [13] = experiment: Activation of dog NCX1 expressed in BHK cells assessed as forward NCX current at 10 uM at -120 mV holding potential by whole-cell patch clamp electrophysiology method; format: cell-based; conditions: Canis lupus familiaris, filed as activator
BHK [14] = experiment: Activation of dog NCX1 expressed in BHK cells assessed as reverese NCX current at 10 uM at +60 mV holding potential by whole-cell patch clamp electrophysiology method; format: cell-based; conditions: Canis lupus familiaris, filed as activator

Structure (SMILES)	inhibition (BHK [1])	inhibition (BHK [2])	Activity (Cortical neurone [3])	Activity (Cortical neurone [4])	Activity (BHK [5])	pIC50 [6]	Activity (Cortical neurone [7])	Activity (BHK [8])	Activity (BHK [9])	Activity (BHK [10])	Activity (BHK [11])	Activity (BHK [12])	Activity (BHK [13])	Activity (BHK [14])
O=C1CN=C(c2ccccc2)c2cc([N+](=O)[O-])ccc2N1CCN1CCCC1	Active	Active	inactive	–	–	–	–	–	–	–	–	–	–	–
O=C1CN=C(c2ccccc2Cl)c2cc([N+](=O)[O-])ccc2N1CN1CCCC1	–	–	Dose-Dependent Effect	Dose-Dependent Effect	Active	5.00	Active	Active	–	–	–	–	–	–
CC1CCCCN1C(=O)CN1C(=O)CN=C(c2ccccc2)c2cc([N+](=O)[O-])ccc21 (stereo not drawn)	–	–	inactive	–	Active	–	–	Active	Active	Active	Active	Active	Active	Active
